ChEMBL document CHEMBL4507319 (2021)

Legend:
Details in all cases: Compound concentration 1.0 uM
[1] = target: cAMP-dependent protein kinase catalytic subunit alpha (Homo sapiens) (UniProt P17612); experiment: PKA(h) Eurofins kinase panel
[2] = target: T1, Mitogen-activated protein kinase 13 (Homo sapiens) (UniProt O15264); experiment: SAPK4(h) Eurofins kinase panel
T1 sequence (whole entry): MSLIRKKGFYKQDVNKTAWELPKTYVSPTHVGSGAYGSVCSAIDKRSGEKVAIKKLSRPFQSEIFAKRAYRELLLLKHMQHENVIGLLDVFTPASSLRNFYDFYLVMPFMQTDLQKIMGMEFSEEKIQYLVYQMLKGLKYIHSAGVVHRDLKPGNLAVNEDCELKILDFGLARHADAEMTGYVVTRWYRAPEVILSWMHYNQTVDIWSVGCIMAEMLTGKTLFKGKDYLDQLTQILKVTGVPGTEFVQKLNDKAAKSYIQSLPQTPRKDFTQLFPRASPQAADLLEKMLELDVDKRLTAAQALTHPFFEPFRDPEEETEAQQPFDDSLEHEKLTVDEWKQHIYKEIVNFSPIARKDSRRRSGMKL

[3] = target: Serine/threonine-protein kinase PLK2 (Homo sapiens) (UniProt Q9NYY3); experiment: Snk(h) Eurofins kinase panel
Chain of Serine/threonine-protein kinase PLK2 (Homo sapiens) (Q9NYY3 whole entry, looked up): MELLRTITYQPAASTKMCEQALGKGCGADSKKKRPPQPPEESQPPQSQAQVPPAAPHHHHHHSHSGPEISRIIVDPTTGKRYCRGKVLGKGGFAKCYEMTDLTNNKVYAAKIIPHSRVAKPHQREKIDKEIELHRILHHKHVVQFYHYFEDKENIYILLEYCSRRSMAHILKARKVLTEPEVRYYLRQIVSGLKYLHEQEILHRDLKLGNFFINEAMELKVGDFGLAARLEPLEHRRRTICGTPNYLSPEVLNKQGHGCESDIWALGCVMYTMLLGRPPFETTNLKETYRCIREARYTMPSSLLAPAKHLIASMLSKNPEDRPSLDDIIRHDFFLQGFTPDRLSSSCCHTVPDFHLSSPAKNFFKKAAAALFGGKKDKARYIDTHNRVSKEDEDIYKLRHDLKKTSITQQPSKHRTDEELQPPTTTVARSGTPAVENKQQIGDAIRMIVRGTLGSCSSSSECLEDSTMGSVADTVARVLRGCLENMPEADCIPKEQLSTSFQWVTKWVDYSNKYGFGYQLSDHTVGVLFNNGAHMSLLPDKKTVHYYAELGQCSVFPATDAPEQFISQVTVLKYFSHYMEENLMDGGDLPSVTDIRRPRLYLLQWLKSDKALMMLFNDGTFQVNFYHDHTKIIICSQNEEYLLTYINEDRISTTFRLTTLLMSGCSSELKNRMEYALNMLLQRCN

[4] = target: Serine/threonine-protein kinase B-raf (Homo sapiens) (UniProt P15056); experiment: B-Raf(h) Eurofins kinase panel
Chain of Serine/threonine-protein kinase B-raf (Homo sapiens) (P15056 whole entry): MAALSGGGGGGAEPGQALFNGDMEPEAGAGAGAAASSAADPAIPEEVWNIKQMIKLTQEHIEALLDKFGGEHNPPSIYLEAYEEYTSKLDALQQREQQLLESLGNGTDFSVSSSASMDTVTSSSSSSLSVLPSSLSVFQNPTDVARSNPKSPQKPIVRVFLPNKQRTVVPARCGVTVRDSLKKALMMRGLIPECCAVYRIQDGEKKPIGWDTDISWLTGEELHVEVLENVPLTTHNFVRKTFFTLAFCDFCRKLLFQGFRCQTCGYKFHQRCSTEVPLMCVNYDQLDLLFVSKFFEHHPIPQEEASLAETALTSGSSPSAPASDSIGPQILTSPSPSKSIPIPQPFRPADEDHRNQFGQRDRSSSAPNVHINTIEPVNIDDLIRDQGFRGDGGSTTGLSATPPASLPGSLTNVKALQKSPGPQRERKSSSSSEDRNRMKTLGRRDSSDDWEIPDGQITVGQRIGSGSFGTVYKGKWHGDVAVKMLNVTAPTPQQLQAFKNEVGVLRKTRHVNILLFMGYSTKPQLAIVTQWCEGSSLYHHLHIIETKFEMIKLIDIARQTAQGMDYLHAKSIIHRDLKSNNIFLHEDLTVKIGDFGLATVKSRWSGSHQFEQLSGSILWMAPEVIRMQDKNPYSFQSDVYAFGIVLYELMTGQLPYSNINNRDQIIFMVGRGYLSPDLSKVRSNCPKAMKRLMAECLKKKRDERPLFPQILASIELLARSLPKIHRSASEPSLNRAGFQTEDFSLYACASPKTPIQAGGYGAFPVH

[5] = target: Glycogen synthase kinase-3 alpha (Homo sapiens) (UniProt P49840); experiment: GSK3α(h) Eurofins kinase panel
Chain of Glycogen synthase kinase-3 alpha (Homo sapiens) (P49840 2-483 limits assumed): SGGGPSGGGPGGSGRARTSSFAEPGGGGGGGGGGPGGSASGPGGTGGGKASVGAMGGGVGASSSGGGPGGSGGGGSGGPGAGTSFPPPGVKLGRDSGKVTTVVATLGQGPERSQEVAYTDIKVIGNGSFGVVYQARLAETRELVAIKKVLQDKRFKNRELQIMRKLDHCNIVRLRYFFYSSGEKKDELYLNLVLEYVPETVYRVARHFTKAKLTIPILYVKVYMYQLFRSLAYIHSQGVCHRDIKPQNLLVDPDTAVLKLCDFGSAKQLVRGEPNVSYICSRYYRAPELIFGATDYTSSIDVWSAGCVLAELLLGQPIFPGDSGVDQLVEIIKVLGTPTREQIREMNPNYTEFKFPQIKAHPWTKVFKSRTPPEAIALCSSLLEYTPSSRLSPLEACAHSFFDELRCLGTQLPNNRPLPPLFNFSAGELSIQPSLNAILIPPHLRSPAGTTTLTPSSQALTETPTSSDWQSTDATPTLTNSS

[6] = target: T2, cGMP-dependent protein kinase 1 (Homo sapiens) (UniProt Q13976); experiment: PKG1alpha (h) Eurofins kinase panel
T2 sequence (whole entry): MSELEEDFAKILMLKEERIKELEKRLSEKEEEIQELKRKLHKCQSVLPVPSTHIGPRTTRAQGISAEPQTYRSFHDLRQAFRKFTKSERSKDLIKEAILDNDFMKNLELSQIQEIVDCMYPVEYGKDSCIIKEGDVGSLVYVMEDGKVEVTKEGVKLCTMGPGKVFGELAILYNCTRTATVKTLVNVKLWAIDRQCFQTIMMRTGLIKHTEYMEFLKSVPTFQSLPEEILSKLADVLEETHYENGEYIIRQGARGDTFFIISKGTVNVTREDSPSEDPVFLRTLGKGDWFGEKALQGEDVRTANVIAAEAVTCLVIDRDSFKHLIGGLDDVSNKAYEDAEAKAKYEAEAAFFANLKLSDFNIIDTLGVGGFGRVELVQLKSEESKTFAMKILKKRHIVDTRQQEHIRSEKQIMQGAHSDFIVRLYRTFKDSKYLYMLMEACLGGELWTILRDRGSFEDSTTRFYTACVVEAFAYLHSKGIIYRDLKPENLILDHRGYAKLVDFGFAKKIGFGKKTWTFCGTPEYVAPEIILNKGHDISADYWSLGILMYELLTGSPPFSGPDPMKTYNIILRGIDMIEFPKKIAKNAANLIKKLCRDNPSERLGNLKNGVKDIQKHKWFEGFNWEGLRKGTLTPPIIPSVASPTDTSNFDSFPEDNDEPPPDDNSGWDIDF

[7] = target: Phosphatidylinositol 4-phosphate 3-kinase C2 domain-containing subunit alpha (Homo sapiens) (UniProt O00443); experiment: PI3KC2a(h) Eurofins kinase panel
Chain of Phosphatidylinositol 4-phosphate 3-kinase C2 domain-containing subunit alpha (Homo sapiens) (O00443 whole entry, the tested form may be a part): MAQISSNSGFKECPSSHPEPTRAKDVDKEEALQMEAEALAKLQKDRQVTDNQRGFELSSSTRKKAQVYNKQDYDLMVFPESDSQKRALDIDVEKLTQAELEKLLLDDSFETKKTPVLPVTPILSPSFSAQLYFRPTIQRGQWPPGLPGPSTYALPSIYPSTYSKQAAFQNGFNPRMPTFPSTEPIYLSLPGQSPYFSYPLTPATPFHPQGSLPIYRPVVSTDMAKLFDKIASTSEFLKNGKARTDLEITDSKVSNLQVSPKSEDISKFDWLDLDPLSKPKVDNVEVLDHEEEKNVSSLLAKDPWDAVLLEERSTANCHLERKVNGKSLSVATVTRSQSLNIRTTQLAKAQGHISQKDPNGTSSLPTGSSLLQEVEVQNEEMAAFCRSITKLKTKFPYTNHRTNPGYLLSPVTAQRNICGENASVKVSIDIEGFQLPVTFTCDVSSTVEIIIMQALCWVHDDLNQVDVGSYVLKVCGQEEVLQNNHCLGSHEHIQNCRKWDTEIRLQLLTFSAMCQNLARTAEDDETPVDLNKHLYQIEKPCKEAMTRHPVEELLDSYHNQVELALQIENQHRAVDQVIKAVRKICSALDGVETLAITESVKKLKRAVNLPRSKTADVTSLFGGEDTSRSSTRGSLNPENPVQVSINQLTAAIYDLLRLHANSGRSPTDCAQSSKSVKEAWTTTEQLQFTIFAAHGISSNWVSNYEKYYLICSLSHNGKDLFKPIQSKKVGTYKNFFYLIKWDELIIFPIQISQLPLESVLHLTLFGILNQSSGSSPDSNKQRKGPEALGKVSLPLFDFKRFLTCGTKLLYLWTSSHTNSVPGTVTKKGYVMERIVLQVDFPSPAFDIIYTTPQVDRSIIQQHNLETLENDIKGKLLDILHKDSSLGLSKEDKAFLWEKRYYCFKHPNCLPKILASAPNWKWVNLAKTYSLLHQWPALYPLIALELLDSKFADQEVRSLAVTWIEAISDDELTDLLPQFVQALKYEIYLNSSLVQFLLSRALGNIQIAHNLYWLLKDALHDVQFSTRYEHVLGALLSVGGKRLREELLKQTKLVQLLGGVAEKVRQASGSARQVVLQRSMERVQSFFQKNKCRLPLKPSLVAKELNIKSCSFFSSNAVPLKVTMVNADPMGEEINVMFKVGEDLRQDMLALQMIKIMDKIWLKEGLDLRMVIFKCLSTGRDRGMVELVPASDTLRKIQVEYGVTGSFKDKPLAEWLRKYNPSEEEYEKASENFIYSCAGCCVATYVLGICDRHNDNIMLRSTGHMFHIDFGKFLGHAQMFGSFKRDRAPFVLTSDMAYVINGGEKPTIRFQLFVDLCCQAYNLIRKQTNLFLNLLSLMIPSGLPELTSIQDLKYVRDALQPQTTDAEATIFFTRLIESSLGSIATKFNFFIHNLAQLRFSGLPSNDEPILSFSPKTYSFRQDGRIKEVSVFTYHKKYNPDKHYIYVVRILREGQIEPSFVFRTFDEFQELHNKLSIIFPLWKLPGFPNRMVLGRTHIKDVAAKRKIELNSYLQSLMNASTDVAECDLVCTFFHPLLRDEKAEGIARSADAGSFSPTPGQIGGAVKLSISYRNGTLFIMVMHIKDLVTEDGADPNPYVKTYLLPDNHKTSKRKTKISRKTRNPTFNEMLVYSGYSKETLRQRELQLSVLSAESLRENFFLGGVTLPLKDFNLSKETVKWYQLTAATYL

[8] = target: T3, Serine/threonine-protein kinase MAK (Homo sapiens) (UniProt P20794); experiment: MAK(h) Eurofins kinase panel
T3 sequence (whole entry): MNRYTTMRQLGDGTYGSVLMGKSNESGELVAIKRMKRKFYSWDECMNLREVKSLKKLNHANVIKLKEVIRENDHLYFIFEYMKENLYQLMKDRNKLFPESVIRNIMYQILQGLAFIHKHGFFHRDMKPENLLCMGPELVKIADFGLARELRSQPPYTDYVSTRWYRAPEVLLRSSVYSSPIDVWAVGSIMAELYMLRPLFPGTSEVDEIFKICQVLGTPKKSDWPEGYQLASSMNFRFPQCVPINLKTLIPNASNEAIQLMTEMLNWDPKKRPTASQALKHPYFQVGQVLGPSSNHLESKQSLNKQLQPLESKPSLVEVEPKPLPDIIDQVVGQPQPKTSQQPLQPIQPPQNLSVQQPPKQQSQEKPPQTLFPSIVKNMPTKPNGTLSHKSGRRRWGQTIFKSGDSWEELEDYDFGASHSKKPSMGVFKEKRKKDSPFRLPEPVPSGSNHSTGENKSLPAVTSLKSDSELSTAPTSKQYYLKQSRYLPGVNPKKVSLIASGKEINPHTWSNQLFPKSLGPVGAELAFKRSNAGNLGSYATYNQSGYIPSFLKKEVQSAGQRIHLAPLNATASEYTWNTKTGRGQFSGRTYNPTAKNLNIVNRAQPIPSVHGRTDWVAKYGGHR

[9] = target: T4, Tyrosine-protein kinase ITK/TSK (Homo sapiens) (UniProt Q08881); experiment: Itk(h) Eurofins kinase panel
T4 sequence (whole entry): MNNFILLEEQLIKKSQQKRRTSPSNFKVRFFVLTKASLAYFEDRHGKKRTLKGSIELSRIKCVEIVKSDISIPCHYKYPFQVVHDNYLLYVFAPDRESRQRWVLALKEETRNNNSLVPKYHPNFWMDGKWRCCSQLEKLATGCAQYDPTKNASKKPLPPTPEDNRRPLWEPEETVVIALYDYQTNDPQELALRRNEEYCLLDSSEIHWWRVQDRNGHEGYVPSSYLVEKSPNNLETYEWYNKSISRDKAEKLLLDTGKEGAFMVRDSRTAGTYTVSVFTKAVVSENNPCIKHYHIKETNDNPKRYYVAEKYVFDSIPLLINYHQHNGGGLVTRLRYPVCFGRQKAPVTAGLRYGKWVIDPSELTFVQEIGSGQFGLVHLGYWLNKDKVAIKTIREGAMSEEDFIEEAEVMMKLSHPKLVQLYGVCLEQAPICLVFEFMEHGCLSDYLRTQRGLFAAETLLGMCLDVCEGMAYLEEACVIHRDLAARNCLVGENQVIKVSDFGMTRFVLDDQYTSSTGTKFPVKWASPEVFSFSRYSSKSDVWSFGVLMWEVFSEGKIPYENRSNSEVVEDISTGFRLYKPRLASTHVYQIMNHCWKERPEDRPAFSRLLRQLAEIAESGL

Measured: % residual kinase activity

CCc1ccccc1C(=O)Nc1n[nH]c2c(C)c(F)c(C3C(C#N)=C(C)N(C)C(C)=C3C#N)cc12 [BAY-3827]
inactive: [1] 103% | [2] 111% | [3] 100% | [4] 99% | [5] 83% | [6] 68% | [7] 103% | [8] 95% | [9] 106%
